# Laboratory results from patent US6346543B1, “Use of a taxoid to treat abnormal cell proliferation in the brain” (priority 1998, dated 2002).
# Where “and” joins values, the source holds several entries; their conditions need not be identical. Equal values may be shown once.
# Columns and labels:
# [1] = test system: intracranially implanted human glioblastoma U251; assay: Antitumor activity against intracranially implanted U251 glioblastoma in NCr-nu mice (RP-36); format: in vivo; conditions: for DAYS OF DEATH: individual animals
# Method: The treatment schedule of the intracranially implanted U251 glioblastoma cells was iv, once daily, every sixth day for three treatments (q6d×3), beginning on day four post-implant. […] For the intracranially implanted studies, the compounds were evaluated based on their ability to increase the life span of the animals. The positive control used for both of these tumor models was nitrosourea.
# The oversight committee was the Southern Research Institutional Animal Care and Use Committee; the protocol used was IACUC No. 96-8-50.
# (§1) Product (Ia) was prepared in 5% ethanol, 5% tween 80, 90% D5W
# (§2) Product (Ia) was administered in 0.4 ml/mouse based on a total body weight average.
# (§3) Nitrosourea was administered 0.1 ml/10 g of body weight.
# (§4) Any intracranially implanted animal that appeared to be moribund was euthanized for humane purposes. Since efficacy studies fall within this category of basic research, experiment termination was based on resultants that were determined to be optimal.
# Six to eight week old athymic NCr-nu female mice were used for the intracranially implanted U251 trials.
# The cells were injected into the cerebrum to the right of the midline with a 25 gauge, ⅜ inch, stainless steel needle. Cultured cells were used for the U251 experiment (RP-36). The treatment schedule was q6d×3, iv, beginning on day four, post-implant. […] The treatment schedule was q4d×3, iv, beginning on day two, post-implant. Nitrosourea was given in each experiment for comparative purposes because of its known activity against CNS tumors.
# [2] = test system: intracranially implanted human glioblastoma SF-295; assay: Antitumor activity against intracranially implanted SF-295 glioblastoma in NCr-nu mice (RP-38); format: in vivo; conditions: for DAYS OF DEATH: individual animals
# Description: Four studies were initiated to evaluate the response of U251 and SF-295 glioblastomas to treatment with product (Ia). In the two studies, U251 and SF-295 glioblastomas were initiated from intracranially implanted cells at a volume of 10^6 cells per mouse. The treatment schedule of the intracranially implanted U251 glioblastoma cells was iv, once daily, every sixth day for three treatments (q6d×3), beginning on day four post-implant. The treatment schedule of the intracranially implanted SF-295 glioblastoma cells was iv, once daily, every fourth day for three treatments (q4d×3), beginning on day two post-implant. For the intracranially implanted studies, the compounds were evaluated based on their ability to increase the life span of the animals. The positive control used for both of these tumor models was nitrosourea.
# In these experiments, general DCTD, NCI techniques and procedures for in vivo efficacy studies were modified for special application (In Vivo Cancer Models, NIH Publication No. 84-2635, 1984). These studies were conducted in approved facilities (AAALAC Registration No. 000643, AALAS Membership No. 840723001, USDA Registration No. 64-R-001, OPPR, PHS, NIH, AWA, Assurance No. A3046-01). These facilities are ISO 9001 certified. The oversight committee was the Southern Research Institutional Animal Care and Use Committee; the protocol used was IACUC No. 96-8-50.
# as §1
# Nitrosourea was prepared in 2% ethanol, 98% physiological saline.
# as §2, §3, §4
# Six to eight week old athymic NCr-nu female mice were used for the intracranially implanted U251 trials. Six to eight week old athymic NCr-nu male mice were used for the intracranially implanted SF-295 trials.
# As previously mentioned, this experiment was designed to evaluate the activity of product (Ia) against intracranially U251 and SF-295 glioblastomas in athymic MCr-nu mice. The dosages for product (Ia) were 30, 20 and 13.4 mg/kg/dose. For the two intracranially implanted experiments, cells were prepared at a concentration of 3.33×10^7 cells per ml of media and injected at a volume of 0.03 ml per mouse. The cells were injected into the cerebrum to the right of the midline with a 25 gauge, ⅜ inch, stainless steel needle. Cultured cells were used for the U251 experiment (RP-36). The treatment schedule was q6d×3, iv, beginning on day four, post-implant. A tumor brei, made from solid tumor, was used for the SF-295 experiment (RP-38). The treatment schedule was q4d×3, iv, beginning on day two, post-implant. Nitrosourea was given in each experiment for comparative purposes because of its known activity against CNS tumors. The dosages were 27, 18 and 12 mg/kg/dose and the treatment schedule was the same as the treatment schedule for product (Ia) in each experiment.
# [3] = 18.0 mg/kg/dose IV Q6D×3(4), listed as nitrosourea
# [4] = 18.0 mg/kg/dose IV Q4D×3(2), listed as nitrosourea
# [5] = 27.0 mg/kg/dose IV Q4D×3(2), listed as nitrosourea
compound,measurement,setting,value
"NC(=O)NN=O [Nitrosourea, reference compound]",122-DAY SURV./TOTAL,[1]; 12.0 mg/kg/dose IV Q6D×3(4),0/10
same,% ILS,[1]; 12.0 mg/kg/dose IV Q6D×3(4),+51%
same,MEDIAN DAY OF DEATH,[1]; 12.0 mg/kg/dose IV Q6D×3(4),51.5 days
same,DAYS OF DEATH,[1]; 12.0 mg/kg/dose IV Q6D×3(4),69 day (2×) and 80 day and 41 day and 45 day and 49 day (3×) and 54 day and 66 day
same,% ILS,"[1]; 12.0 mg/kg/dose IV Q6D×3(4), listed as nitrosourea",51%
same,122-DAY SURV./TOTAL,[1]; 18.0 mg/kg/dose IV Q6D×3(4),7/10
same,% ILS,[1]; 18.0 mg/kg/dose IV Q6D×3(4),+205%
same,MEDIAN DAY OF DEATH,[1]; 18.0 mg/kg/dose IV Q6D×3(4),104.0 days
same,DAYS OF DEATH,[1]; 18.0 mg/kg/dose IV Q6D×3(4),94 day and 104 day (2×)
same,122-DAY SURV./TOTAL,[1]; [3],seven of ten
same,% ILS,[1]; [3],205%
same,122-DAY SURV./TOTAL,[1]; 27.0 mg/kg/dose IV Q6D×3(4),10/10
same,122-DAY SURV./TOTAL,"[1]; 27.0 mg/kg/dose IV Q6D×3(4), listed as nitrosourea",ten of ten
same,MTD,"[1]; iv q6d×3, U251 experiment RP-36",27 mg/kg/dose
same,68 DAY SURV./TOTAL,[2]; 12.0 mg/kg/dose IV Q4D×3(2),0/10
same,% ILS,[2]; 12.0 mg/kg/dose IV Q4D×3(2),+106%
same,MEDIAN DAY OF DEATH,[2]; 12.0 mg/kg/dose IV Q4D×3(2),33.0 days
same,DAYS OF DEATH,[2]; 12.0 mg/kg/dose IV Q4D×3(2),33 day (5×) and 40 day and 22 day and 23 day and 26 day (2×)
same,% ILS,"[2]; 12.0 mg/kg/dose IV Q4D×3(2), listed as nitrosourea",106%
same,68 DAY SURV./TOTAL,[2]; 18.0 mg/kg/dose IV Q4D×3(2),1/10
same,% ILS,[2]; 18.0 mg/kg/dose IV Q4D×3(2),+131%
same,MEDIAN DAY OF DEATH,[2]; 18.0 mg/kg/dose IV Q4D×3(2),37.0 days
same,DAYS OF DEATH,[2]; 18.0 mg/kg/dose IV Q4D×3(2),40 day and 41 day and 33 day and 34 day (2×) and 35 day and 37 day (3×)
same,68 DAY SURV./TOTAL,[2]; [4],one 68-day survivor out of ten animals
same,% ILS,[2]; [4],131%
same,68 DAY SURV./TOTAL,[2]; 27.0 mg/kg/dose IV Q4D×3(2),2/10
same,% ILS,[2]; 27.0 mg/kg/dose IV Q4D×3(2),+50%
same,MEDIAN DAY OF DEATH,[2]; 27.0 mg/kg/dose IV Q4D×3(2),24.0 days
same,DAYS OF DEATH,[2]; 27.0 mg/kg/dose IV Q4D×3(2),64 day and 15 day and 16 day (2×) and 19 day and 29 day and 37 day and 56 day
same,68 DAY SURV./TOTAL,[2]; [5],two 68-day survivors out of ten animals
same,% ILS,[2]; [5],50%
same,MTD,"[2]; in vivo, iv",27 mg/kg/dose
